Source: patent US8257915B2, “Farnesyltransferase inhibitors for treatment of laminopathies, cellular aging and atherosclerosis” (Progeria Research Foundation, Inc., priority 2002, dated 2012)
Read-outs that look alike come from different tables or passages of the source.

How the values were obtained:
[1] = tested on: normal fibroblasts (GM08398) stably expressing GFP-lamin A, GFP-progerin and GFP-LA(L647R); experiment: Nuclear morphology and GFP localization in normal fibroblasts stably expressing GFP fusions (retroviral TET-OFF), exposed to FTI; assay type: cell-based, human
Protocol: FIG. 11 illustrates the effect of the FT1, PD169451, on the nuclear morphology of normal fibroblasts (GM08398) stably expressing GFP-lamin A, GFP-progerin and GFP-LA(L647R) using a retroviral TET-OFF® expression vector system (Clontech). Fibroblasts were maintained in medium with 0 nM, 10 nM or 100 nM FTI for 6 days.
Cultures were plated in chambered microscope slides 24 hours prior to fixing with 4% paraformaldehyde for nuclear morphology studies. Cells were maintained in three predetermined tetracycline concentrations, 0 mM for full expression (A), 0.05 mM for intermediate expression levels (B), and 8 mM for very low expression levels (C). […] Analysis of nuclear morphology was performed in a double blinded fashion with at least 70 cells analyzed per sample.
FIG. 12 illustrates the effect of FTI on the distribution of GFP signal in normal fibroblasts (GM08398) expressing GFP-lamin A (panels A, B and C), GFP-progerin (D, E and F) and GFP-LA(L647R) (G, H, and I) using a retroviral TET-OFF® expression vector system with various FTI concentrations. Fibroblasts were maintained in medium with 0 nM (A, D, G), 10 nM (B, E, and H) or 100 nM (C, F and I) FTI for six days. Expression levels of the GFP fusions were maintained at levels similar to endogenous levels of lamin A by the addition of 0.05 mg/ml tetracycline. Signals were visualized with a Zeiss AXIOPHOT™ Fluorescent microscope and imaging was performed using the Olympus DP70 Digital Camera System.
Retroviral Constructs: The pRevTetOff vector and pRevTRE constructs were transfected using FUGENE®6 transfection reagent into the Amphotropic Phoenix retroviral packaging line (Peter Nolan, Stanford University). Forty-eight hours after transfection the media containing retrovirus was filtered through a 0.22 micron filter and used immediately or stored at −70° C. Retroviral infection was performed by exposing target cells to a 1:1 mix of retroviral supernatant and growth medium with 4 μg/ml polybrene.
By way of example, GFP-lamin A and GFP-progerin were expressed from TET-OFF® retroviral expression vector constructs that allowed for sustained expression and modulation of expression to address the possibility of results due to over-expression of the fusion proteins when the proteins were transiently expressed. In addition, a cleavage minus mutant, GFP-LA(L647R), was included to examine the effect of retaining the farnesyl group without the 50 amino acid deletion found in progerin.

[2] = tested on: HGPS fibroblasts (AG11498, P01, HGADFN136, HGADFN004); experiment: Nuclear morphology of HGPS fibroblasts maintained in FTI; assay type: cell-based, human
Protocol: (§1) FIG. 10 illustrates the effect of long-term exposure to low doses of FTI (PD169451) on the nuclear morphology of normal (GM08398 and HGMDFN090) and HGPS (AG11498, P01, HGADFN136 and HGADFN004) fibroblasts. Fibroblasts were maintained in medium with 0 nM, 10 nM or 100 nM FTI. Cultures were plated in chambered microscope slides 24 hours prior to fixing with 4% paraformaldehyde for nuclear morphology studies. **—Too few cells to count. […] All cell lines were passage 6 at the beginning of the analysis except for HGADFN004, which was at passage 12.
(§2) Normal and HGPS fibroblasts were maintained in T75 tissue culture flasks with 0 nM, 10 nM, and 100 nM concentrations of the FTI, PD169451, added to the growth medium. The medium was changed every 2 days and the cells were split when they were approximately 80% confluent. Three days prior to each time point, a flask was trypsinized and cells were placed in chambered microscope slides (BD Biosciences) and maintained in the appropriate FTI concentration. Seventy-two hours later the cells were washed two times with PBS (pH 7.2) and fixed for 20 minutes at 4° C. with 4% paraformaldehyde in PBS containing 62.5 µg/ml LPC palmitoyl and 1 U/ml rhodamine phalloidin (Molecular Probes) to stain the cytoskeleton. Following three washes with PBS, […] of ProLong Gold mounting medium with DAPI (Molecular Probes) was applied and the cells were overlaid with a coverslip.

[3] = tested on: normal fibroblasts (GM08398) transiently expressing GFP-lamin A or GFP-progerin; experiment: Nuclear morphology and GFP localization in normal fibroblasts transiently expressing GFP-lamin A or GFP-progerin, exposed to FTI; assay type: cell-based, human; details: 100 nM FTI, 72 hours
Protocol: (§3) FIG. 7 illustrates the effect of a 72 hour exposure to 100 nM FTI (PD169451) on GFP-lamin A (A) and GFP-progerin (B) localization, protein processing (C) and nuclear morphology (D and E). Confocal microscopy was used to examine the effects of FTIs on transiently-expressed GFP-lamin A (A) and GFP-progerin (B) in normal fibroblasts. Three focal planes are shown—top, middle and bottom (from left to right). Exposure to 100 nM FTI for 72 hours caused about half of the endogenous lamin A to be unprocessed pre-lamin A in normal and HGPS fibroblasts (C). Exposure to the FTI increased the percent of mock transfected cells and GFP-lamin A expressing cells with abnormal nuclear morphology (D). However, the percentage of cells expressing GFP-progerin with an abnormal nuclear morphology decreased by 33% when exposed to the FTI for 72 hours.
GFP localization: Normal and HGPS fibroblasts were plated on coverslips in six well plates or in chambered microscope slides (BD Biosciences) 24 hours prior to transfection. Fibroblasts were transiently transfected with the GFP-lamin A or GFP-progerin expression constructs using FUGENE®6 transfection reagent (Roche). Seventy-two hours later the cells were washed two times with PBS (pH 7.2) and fixed for 20 minutes at 4° C. with 4% paraformaldehyde in PBS containing 62.5 µg/ml LPC palmitoyl and 1 U/ml rhodamine phalloidin (Molecular Probes) to stain the cytoskeleton. Following three washes with PBS, Prolong Gold mounting medium with DAPI (Molecular Probes) was applied to the coverslips which were then inverted and placed on microscope slides.
Normal and HGPS fibroblasts were plated on coverslips in 6 well plates 24 hours prior to transfection. Normal fibroblasts were transiently transfected with the GFP-lamin A or GFP-progerin expression constructs using FUGENE®6 transfection reagent (Roche). The following day, the medium was replaced with growth medium containing 0 nM, 100 nM, 500 nM or […] of the FTI, PD169451. […]

endogenous lamin A = experiment: Lamin A processing (pre-lamin A) by immunoblot after FTI exposure; assay type: cell-based, human; details: 100 nM FTI, 72 hours; normal and HGPS fibroblasts
Protocol: as §3
Immunoblotting: Proteins were transferred to Immobilon-P membrane (Millipore) using a Trans-Blot semi-dry electrophoretic transfer cell (BioRad) blocked with 5% dry milk in TBST and probed with lamin A/C specific antibodies according to standard protocols.

[4] = tested on: normal fibroblasts (GM08398 and HGMDFN090); experiment: Nuclear morphology of normal fibroblasts maintained in FTI; assay type: cell-based, human
Protocol: as §1, §2

[5] = cited from earlier work
[6] = 10 nM FTI, 6 days, intermediate expression (0.05 mg/ml tetracycline), p<0.0001

**Q.** For `CC(C)(CNC(=O)CN(Cc1ccc(OCc2ccccc2)cc1)C(=O)[C@H](Cc1cnc[nH]1)NC(=O)OCc1ccccc1)c1ccccc1` [PD169451], which “reduction of percent abnormal nuclei, GFP-LA(L647R)” value [1, 6] is on record?
**A.** 67%

**Q.** What about the “reduction of percent abnormal nuclei, GFP-progerin” value [1, 6] of the same compound?
**A.** 71%

**Q.** And the “reorganization of GFP signal for any of the fusion proteins” value ([1]; 10 nM FTI, stable expression)?
**A.** did not lead to this drastic reorganization

**Q.** And the “effect on abnormal nuclear morphology at very high expression levels of GFP-progerin or GFP-LA(L647R)” value ([1]; 10 nM FTI, no tetracycline)?
**A.** could not overcome

**Q.** And the “localization of GFP-lamin A and GFP-progerin” value ([1]; 100 nM FTI, stable expression)?
**A.** localize to intranuclear filaments

**Q.** And the “localization of GFP-tagged L647R mutant” value ([1]; 100 nM FTI, stable expression)?
**A.** redistributed to intranuclear filaments

**Q.** And the “improvement in abnormal nuclear morphology at 100 nM in comparison to 10 nM” value ([1]; 100 nM FTI, intermediate expression of GFP-progerin and GFP-LA(L647R))?
**A.** less profound

**Q.** What about the “percentage of abnormal nuclei in HGPS fibroblasts and in normal fibroblasts expressing GFP-progerin” value ([2]; 10 nM FTI) of the same compound?
**A.** significantly lowered

**Q.** What about the “drop in abnormal morphology” value ([2]; 10 nM FTI, 14 days, HGPS cell line HGADFN004) of the same compound?
**A.** 12%

**Q.** And the “decrease in abnormal nuclei” value ([2]; 10 nM FTI, 14 days, three HGPS lines each)?
**A.** ≥ 70%

**Q.** And the “reduction in the percent of cells with abnormal nuclei” value ([2]; 10 nM FTI, two days, four HGPS cell lines)?
**A.** ~40%

**Q.** And the “growth of HGADFN004 line” value ([2]; 100 nM FTI, 14 day time point)?
**A.** failed to grow

**Q.** What about the “drop in the percent of cells with abnormal nuclear morphology” value ([2]; AG11498 line, various FTI concentrations, three days) of the same compound?
**A.** ≤ 40%

**Q.** And the “FTI dose that caused cells to stop dividing after a week to 10 days” value ([2]; long-term exposure, normal and HGPS fibroblasts)?
**A.** greater than 200 nM

**Q.** And the nuclear morphology phenotype ([2]; normal fibroblasts expressing progerin and HGPS fibroblasts (summary of Example 3))?
**A.** significant improvement

**Q.** And the “effect on the localization of transiently expressed GFP-lamin A and GFP-progerin” value [3]?
**A.** significant effect

**Q.** What about the “percent of mock transfected cells and GFP-lamin A expressing cells with abnormal nuclear morphology” value [3] of the same compound?
**A.** increased

**Q.** What about the “decrease in the percentage of cells expressing GFP-progerin with an abnormal nuclear morphology” value ([3]; normal fibroblasts transiently expressing GFP-progerin) of the same compound?
**A.** 33%

**Q.** What about the “endogenous lamin A present as unprocessed pre-lamin A” value (endogenous lamin A) of the same compound?
**A.** about half

**Q.** And the “abnormal nuclear morphology in normal fibroblasts, dose dependence” value ([4]; 0, 10, 100 nM FTI)?
**A.** dose dependent manner

**Q.** What about the “nuclear morphology of normal cells” value ([4]; 10 nM FTI) of the same compound?
**A.** did not substantially alter

**Q.** And the “abnormal nuclear morphology in normal fibroblasts” value ([4]; high doses of the FTI, greater than 200 nM)?
**A.** increase in abnormal nuclear morphology

**Q.** What does the source list for `Cn1cncc1[C@@](N)(c1ccc(Cl)cc1)c1ccc2c(c1)c(-c1cccc(Cl)c1)cc(=O)n2C` [tipifarnib]?
**A.** tolerability ([5]; Phase III trials, including trials involving children): well tolerated; tolerability ([5]; clinical trials): well tolerated
